This passage reports IC50 results from patent US10106501B2, “Nuclear receptor modulators” (AbbVie Inc., priority 2015, dated 2018).

SMILES strings stand for the structures. Bounds are passed on as bounds.

The target of this test is T1, chimeric human RORγ-Gal4 receptor (Homo sapiens, UniProt P51449).
T1 sequence (P51449 269-508 limits assumed): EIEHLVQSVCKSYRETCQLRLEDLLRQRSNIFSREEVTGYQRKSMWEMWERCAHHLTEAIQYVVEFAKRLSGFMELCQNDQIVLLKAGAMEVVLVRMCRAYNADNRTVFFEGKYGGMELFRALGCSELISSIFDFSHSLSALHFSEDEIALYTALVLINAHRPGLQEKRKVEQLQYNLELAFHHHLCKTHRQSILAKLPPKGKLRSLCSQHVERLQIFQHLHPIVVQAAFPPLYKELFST
The test is described as follows: transient transactivation assay (RORγ-Gal4 luciferase reporter). The following applies: Cos-7 cells transfected with RORγ-Gal4 and 5Gal4 pGL3 TK Luc reporter; overnight incubation; T0901317 at 10^-5 M as reference; read-out: IC50. It counts as cell-based.
`Cc1cc(C(F)(F)F)cc2c1nc(C(=O)c1c(Cl)ccc(C(=O)N3CCOCC3)c1Cl)n2C` [Example BS, (2,4-dichloro-3-(1,4-dimethyl-6-(trifluoromethyl)-1H-benzo[d]imidazole-2-carbonyl)phenyl)(morpholino)methanone]: the IC50 – broadly, the midpoint of a concentration-inhibition curve – is 100 to 500 nM.
In the case of `Cc1cc(C#N)cc2c1cc(Cc1c(Cl)ccc(O[C@H]3CC[C@@H](C(=O)O)CC3)c1Cl)n2C` [Example AF1, cis-4-(2,4-dichloro-3-((6-cyano-1,4-dimethyl-1H-indol-2-yl)methyl)phenoxy)cyclohexanecarboxylic acid], the IC50 is 500 to 1000 nM.
As to `Cc1cc(C(F)(F)F)cc2c1nc(Cc1c(Cl)ccc(CN3CCN(CC(F)(F)F)CC3)c1Cl)n2C` [BW-15], the IC50 is 100 to 500 nM.
For the compound `Cc1cc(OC(F)(F)F)cc2c1c(Cc1c(Cl)ccc(C(=O)N3CCC(C(=O)O)C(C)C3)c1Cl)cn2C` (stereo not shown) [DU1-2], the half-inhibitory concentration (IC50) is less than 100 nM.
For the compound `Cc1cc(C#N)cc2c1nc(Cc1c(Cl)ccc(C(=O)N3CCC4(CCOC4)CC3)c1Cl)n2C` [BN-8], the IC50 is 100 to 500 nM.
For `Cc1cc(C#N)cc2c1cc(Cc1c(Cl)ccc(C(=O)N3CCN(C)C(C)C3)c1Cl)n2C` (stereo not shown) [AA-10] the value was 100 to 500 nM.
`Cc1nn(Cc2c(Cl)ccc(C(=O)N3CCC(CC(=O)O)CC3)c2Cl)c2c(C)cc(C(F)(F)F)cc12` [DE, 2-(1-(2,4-dichloro-3-((3,7-dimethyl-5-(trifluoromethyl)-1H-indazol-1-yl)methyl)benzoyl)piperidin-4-yl)acetic acid]: the IC50 is less than 100 nM.
Take `Cc1cc(C(F)(F)F)cc2occ(Cc3c(Cl)ccc(C(=O)N4CCC(CC(=O)O)CC4)c3Cl)c12` [DZ, 2-(1-(2,4-dichloro-3-((4-methyl-6-(trifluoromethyl)benzofuran-3-yl)methyl)benzoyl)piperidin-4-yl)acetic acid]: the IC50 is less than 100 nM.
Take `Cc1cc(C(F)(F)F)cc2c1cc(Cc1c(Cl)ccc(C(=O)N3CCC(C(C)C(=O)O)CC3)c1Cl)n2C` (stereo not shown) [Example B-19]: the IC50 is less than 100 nM.
`Cc1cc(C(F)(F)F)nc2c1cc(Cc1c(Cl)ncc(C(=O)N3CCC(S(C)(=O)=O)CC3)c1Cl)n2C` [Example GG, (4,6-dichloro-5-((1,4-dimethyl-6-(trifluoromethyl)-1H-pyrrolo[2,3-b]pyridin-2-yl)methyl)pyridin-3-yl)(4-(methylsulfonyl)piperidin-1-yl)methanone]: the IC50 is less than 100 nM.
As for `CC(=O)n1c(Cc2c(Cl)ccc(C(=O)N3CCOCC3)c2Cl)cc2c(C)cc(C(F)(F)F)cc21` [Example D-2], the 50% inhibitory concentration (IC50) was less than 100 nM.
`COCCC1CCN(Cc2ccc(Cl)c(Cc3nc4c(C)cc(C(F)(F)F)cc4n3C)c2Cl)CC1` [Example BW, 2-[[2,6-dichloro-3-[[4-(2-methoxyethyl)-1-piperidyl]methyl]phenyl]methyl]-1,4-dimethyl-6-(trifluoromethyl)benzimidazole]: the IC50 lay in the range of 100 to 500 nM.
As for `Cc1cc(C(F)(F)F)cc2c1cc(Cc1c(Cl)ccc(C(=O)N3CCC(OCC(=O)O)CC3)c1Cl)n2C` [Example B-2], the IC50 is less than 100 nM.
For `Cc1cc(C(F)(F)F)cc2c1nc(Cc1c(Cl)ccc(CN3CCC(C4COC4)CC3)c1Cl)n2C` [BW-1] the value was 100 to 500 nM; for `Cn1c(Cc2c(Cl)ccc(C(=O)N3CCOCC3)c2Cl)cc2c(Cl)cc(C#N)cc21` [CJ, 4-chloro-2-(2,6-dichloro-3-(morpholine-4-carbonyl)benzyl)-1-methyl-1H-indole-6-carbonitrile], 1000 to 10000 nM; for `Cc1cc(C(F)(F)F)nc2c1cc(C(=O)c1c(Cl)ccc(C(=O)N3CCC(O)CC3)c1Cl)n2C` [Example FZ, (2,4-dichloro-3-(1,4-dimethyl-6-(trifluoromethyl)-1H-pyrrolo[2,3-b]pyridine-2-carbonyl)phenyl)(4-hydroxypiperidin-1-yl)methanone], less than 100 nM.
For `Cn1c(Cc2c(Cl)ccc(C(=O)N3CCC(C(=O)O)CC3)c2Cl)cc2ccc(OC(F)(F)F)cc21` [FI-1] the value was less than 100 nM; for `COCCC1CCN(C(=O)c2ccc(Cl)c(Cc3nc4c(C)cc(C(F)(F)F)cc4n3C)c2Cl)CC1` [BJ-18], less than 100 nM; for `COC1CCC(NC(=O)c2ccc(Cl)c(Cc3nc4c(C)cc(C(F)(F)F)cc4n3C)c2Cl)CC1` (stereo not shown) [BJ-22], 100 to 500 nM.
Consider `Cn1c(Cc2c(C3CC3)ccc(C(=O)N3CCC(CC(=O)O)CC3)c2Cl)cc2ccc(OC(F)(F)F)cc21` [Example FL, 2-(1-(2-chloro-4-cyclopropyl-3-((1-methyl-6-(trifluoromethoxy)-1H-indol-2-yl)methyl)benzoyl)piperidin-4-yl)acetic acid], for which the 50% inhibitory concentration (IC50) is less than 100 nM.
For `Cc1cc(C(F)(F)F)nc2c1cc(Cc1c(Cl)ccc(C(=O)N3CCOCC3)c1Cl)n2C` [CM, (2,4-dichloro-3-((1,4-dimethyl-6-(trifluoromethyl)-1H-pyrrolo[2,3-b]pyridin-2-yl)methyl)phenyl)(morpholino)methanone], the IC50 was less than 100 nM.
With `Cc1cc(C#N)cc2c1cc(Cc1c(Cl)ccc(C(=O)N3CCC(C(C)(C)CO)CC3)c1Cl)n2C` [AA-8], the IC50 was less than 100 nM.
For the compound `Cc1cc(C(F)(F)F)cc2c1cc(Cc1c(Cl)ccc(C(=O)N3CC4(CC(C(=O)O)C4)C3)c1Cl)n2C` [Example B-18], the IC50 is less than 100 nM.
Take `Cc1cc(C(F)(F)F)cc2c1cc(Cc1c(Cl)ccc(C(=O)N3CCC(CC(=O)O)CC3)c1Cl)n2C` [Example B-7]: the IC50 is less than 100 nM.
In the case of `Cc1cc(C#N)cc2c1cc(C(=O)c1c(Cl)ccc(C(=O)N3CCOCC3)c1Cl)n2C` [Example AD, 2-(2,6-dichloro-3-(morpholine-4-carbonyl)benzoyl)-1,4-dimethyl-1H-indole-6-carbonitrile], the IC50 lay within 100 to 500 nM.
As for `Cc1cc(C(F)(F)F)cc2c1c(Cc1c(Cl)cnc(C(=O)N3CCC(CC(=O)O)CC3)c1Cl)cn2C` [DW, 2-[1-[3,5-dichloro-4-[[1,4-dimethyl-6-(trifluoromethyl)-1H-indol-3-yl]methyl]pyridine-2-carbonyl]-4-piperidyl]acetic acid], the IC50 was less than 100 nM.
For `Cn1c(Cc2c(Cl)ccc(C(=O)N3CCC(CC(=O)O)CC3)c2Cl)cc2c(Cl)cc(C#N)cc21` [Example R, 2-(1-(2,4-dichloro-3-((4-chloro-6-cyano-1-methyl-1H-indol-2-yl)methyl)benzoyl)piperidin-4-yl)acetic acid] the value was less than 100 nM; for `Cn1c(Cc2c(Cl)ccc(C(=O)N3CCOCC3)c2Cl)cc2c(Cl)cc(C#N)cc21` [DQ, 4-chloro-2-(2,6-dichloro-3-(morpholine-4-carbonyl)benzyl)-1-methyl-1H-indole-6-carbonitrile], less than 100 nM; for `Cc1cc(C(F)(F)F)cc2c1nc(Cc1c(Cl)ccc(CN3CCC(C(C)O)CC3)c1Cl)n2C` (stereo not shown) [BW-13], 100 to 500 nM.
Turning to `Cn1c(Cc2c(Cl)ccc(C(=O)N3CCOCC3)c2Cl)cc2cc(C#N)ccc21` [Example AB, 2-(2,6-dichloro-3-(morpholine-4-carbonyl)benzyl)-1-methyl-1H-indole-5-carbonitrile], the IC50 lay within 100 to 500 nM.
In the case of `Cc1cn(C(=O)c2c(Cl)ccc(C(=O)N3CCC(CC(=O)O)CC3)c2Cl)c2c(C)cc(OC(F)(F)F)cc12` [EH, 2-[1-[2,4-dichloro-3-[3,7-dimethyl-5-(trifluoromethoxy)indole-1-carbonyl]benzoyl]-4-piperidyl]acetic acid], the half-maximal inhibitory concentration (IC50) is less than 100 nM.
In the case of `Cc1cc(C#N)cc2c1cc(Cc1c(Cl)ccc(C(=O)N3CCC(OCC(=O)O)CC3)c1Cl)n2C` [Example AM, 2-((1-(2,4-dichloro-3-((6-cyano-1,4-dimethyl-1H-indol-2-yl)methyl)benzoyl)piperidin-4-yl)oxy)acetic acid], the IC50 fell in the range of 1000 to 10000 nM.
For `Cc1cc(C(F)(F)F)nc2c1cc(Cc1c(Cl)ncc(C(=O)N3CCOCC3)c1Cl)n2C` [Example GF, (4,6-dichloro-5-((1,4-dimethyl-6-(trifluoromethyl)-1H-pyrrolo[2,3-b]pyridin-2-yl)methyl)pyridin-3-yl)(morpholino)methanone], the IC50 is less than 100 nM.
For `Cn1c(Cc2c(Cl)ccc(C(=O)N3CCC(C(=O)O)CC3)c2Cl)cc2c(F)cc(C3CC3)cc21` [Example FN, 1-(2,4-dichloro-3-((6-cyclopropyl-4-fluoro-1-methyl-1H-indol-2-yl)methyl)benzoyl)piperidine-4-carboxylic acid] the value was less than 100 nM.
As for `Cc1ncc(C(=O)N2CCC(CC(=O)O)CC2)c(C)c1Cc1cc2c(C)cc(C(F)(F)F)cc2n1C` [Example BC, 2-(1-(5-((1,4-dimethyl-6-(trifluoromethyl)-1H-indol-2-yl)methyl)-4,6-dimethylnicotinoyl)piperidin-4-yl)acetic acid], the half-maximal inhibitory concentration (IC50) lay within 100 to 500 nM.
For `Cc1cc(C(F)(F)F)cc2c1c(Cc1c(Cl)ccc(C(=O)N3CC[C@H](C(=O)O)[C@H](C)C3)c1Cl)cn2C` [Example F1-2], the IC50 was less than 100 nM.
For the compound `Cc1cc(C#N)cc2c1cc(Cc1c(Cl)ccc(C(=O)N3CC4(COC4)C3)c1Cl)n2C` [AA-26], the IC50 lay in the range of 100 to 500 nM.
On to `Cc1cn(Cc2c(Cl)ccc(C(=O)N3CCC(CC(=O)O)CC3)c2Cl)c2c(C)cc(C#N)cc12` [DL, 2-(1-(2,4-dichloro-3-((5-cyano-3,7-dimethyl-1H-indol-1-yl)methyl)benzoyl)piperidin-4-yl)acetic acid], for which the IC50 was less than 100 nM.
Turning to `Cc1cc(C(F)(F)F)cc2c1cc(Cc1c(Cl)ccc(C(=O)N3CCC(C(=O)O)C(C)C3)c1Cl)n2C` (stereo not shown) [Example B-1, 1-(2,4-dichloro-3-((1,4-dimethyl-6-(trifluoromethyl)-1H-indol-2-yl)methyl)benzoyl)-3-methylpiperidine-4-carboxylic acid], the IC50 is less than 100 nM.
For `Cc1cn(Cc2c(Cl)ccc(C(=O)N3CCC(CC(=O)O)CC3)c2Cl)c2c(C)cc(C(F)(F)F)cc12` [DI, 2-(1-(2,4-dichloro-3-((3,7-dimethyl-5-(trifluoromethyl)-1H-indol-1-yl)methyl)benzoyl)piperidin-4-yl)acetic acid] the value was less than 100 nM.
